Reference: ChEMBL document CHEMBL1153894, “Chloroquine-astemizole hybrids with potent in vitro and in vivo antiplasmodial activity” (Bioorg Med Chem Lett, 2009)

Assays:
Plasmodium falciparum [1] = assay: Antiplasmodial activity against chloroquine-resistant Plasmodium falciparum K1; assay type: functional, organism-based
L6 = assay: Cytotoxicity against rat L6 cells; assay type: cell-based
[2] = Selectivity ratio of cytotoxicity for rat L6 cells to IC50 for Plasmodium falciparum K1; assay type: cell-based; conditions: read-out: FC
Plasmodium falciparum [3] = assay: Antiplasmodial activity against chloroquine-resistant Plasmodium falciparum K1 at 5 uM; assay type: functional
Plasmodium berghei [4] = assay: Antiplasmodial activity as mean survival time against Plasmodium berghei infected mice (Mus musculus) at 4 x 10 mg/kg intraperitoneal dose; assay type: functional
Plasmodium berghei [5] = assay: Antiplasmodial activity as mean survival time against Plasmodium berghei infected mice (Mus musculus) at 4 x 50 mg/kg intraperitoneal dose; assay type: functional
Plasmodium berghei [6] = assay: Antiplasmodial activity as mean survival time against Plasmodium berghei infected mice (Mus musculus) at 4 x 20 mg/kg intraperitoneal dose; assay type: functional
Plasmodium berghei [7] = assay: Antiplasmodial activity as reduced parasitaemia against Plasmodium berghei infected mice (Mus musculus) at 4 x 10 mg/kg intraperitoneal dose; assay type: functional; set-up: scale not given: the % may be the effect or the level left
Plasmodium berghei [8] = assay: Antiplasmodial activity as reduced parasitaemia against Plasmodium berghei infected mice (Mus musculus) at 4 x 50 mg/kg intraperitoneal dose; assay type: functional; set-up: scale not given: the % may be the effect or the level left
Plasmodium berghei [9] = assay: Antiplasmodial activity as reduced parasitaemia against Plasmodium berghei infected mice (Mus musculus) at 4 x 20 mg/kg intraperitoneal dose; assay type: functional; set-up: scale not given: the % may be the effect or the level left

Structure (SMILES) | IC50 (Plasmodium falciparum [1]) [nM] | Activity (L6) [µM] | selectivity ratio [2] | Activity (Plasmodium falciparum [3]) [%] | MST (Plasmodium berghei [4]) [days] | MST (Plasmodium berghei [5]) [days] | MST (Plasmodium berghei [6]) [days] | Activity (Plasmodium berghei [7]) [%] | Activity (Plasmodium berghei [8]) [%] | Activity (Plasmodium berghei [9]) [%]
Fc1ccc(Cn2c(N3CCN(CCCNc4ccnc5cc(Cl)ccc45)CC3)nc3ccccc32)cc1 | 23 | 6.86 | > 100 | – | – | – | – | – | – | –
COc1ccc(CCN2CCC(Nc3nc4ccccc4n3Cc3ccc(F)cc3)CC2)cc1 [ASTEMIZOLE] | – | – | > 100 | 50 | – | – | – | – | – | –
Fc1ccc(Cn2c(NC3CCN(c4ccnc5cc(Cl)ccc45)CC3)nc3ccccc32)cc1 | 37 | 8.8 | > 100 | – | 17 | 13 | 8 | 99 | 99 | 80
Fc1ccc(Cn2c(N3CCN(c4ccnc5cc(Cl)ccc45)CC3)nc3ccccc32)cc1 | 610 | 126 | > 100 | – | – | – | – | – | – | –
Fc1ccc(Cn2c(N3CCC(Nc4ccnc5cc(Cl)ccc45)CC3)nc3ccccc32)cc1 | 64 | 9.1 | > 100 | – | – | – | – | – | – | –
